Where a SMILES comes first, the peptide text is derived from it.
Target: T1, Elastase from human neutrophils (Homo sapiens, UniProt P08246)
T1 sequence (P08246 30-267): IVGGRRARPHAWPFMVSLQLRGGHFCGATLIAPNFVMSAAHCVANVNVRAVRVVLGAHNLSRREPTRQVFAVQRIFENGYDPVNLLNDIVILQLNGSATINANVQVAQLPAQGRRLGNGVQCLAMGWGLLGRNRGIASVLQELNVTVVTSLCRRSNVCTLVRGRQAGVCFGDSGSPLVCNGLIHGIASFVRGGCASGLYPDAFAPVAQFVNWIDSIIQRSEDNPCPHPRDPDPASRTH
Experiment: Enzymatic assay, elastase
Conditions: Elastase IC50

Structure (SMILES)	IC50 [nM]
CC[C@H](C)[C@@H]1NC(=O)[C@H](CO)NC(=O)[C@H](C)NC(=O)[C@H]([C@@H](C)O)NC(=O)[C@H](CCC(=O)O)NC(=O)[C@H](CCc2ccccc2)NC(=O)[C@@H]2CCCN2C(=O)[C@H]2CCCN2C(=O)[C@H](Cc2ccc(O)cc2)NC(=O)[C@H](CCCCN)NC(=O)[C@H](CCC(N)=O)NC(=O)[C@@H]2CCCN2C(=O)[C@@H]2CCCN2C1=O [Ex. 132] (HELM PEPTIDE1{[O=C([C@H](CCc1ccccc1)N[*:1])[*:2]].E.T.A.S.I.P.P.Q.K.Y.[dP].P}$PEPTIDE1,PEPTIDE1,1:R1-13:R2$$$V2.0)	26
CC[C@H](C)[C@@H]1NC(=O)[C@H](CO)NC(=O)[C@H](C)NC(=O)[C@H]([C@@H](C)O)NC(=O)[C@H]([C@@H](C)O)NC(=O)[C@H](CCc2ccccc2)NC(=O)[C@@H]2CCCN2C(=O)[C@H]2CCCN2C(=O)[C@H](Cc2ccc(O)cc2)NC(=O)[C@H](CCC(N)=O)NC(=O)[C@H](CCC(N)=O)NC(=O)[C@@H]2CCCN2C(=O)[C@@H]2CCCN2C1=O [Ex. 134] (HELM PEPTIDE1{[O=C([C@H](CCc1ccccc1)N[*:1])[*:2]].T.T.A.S.I.P.P.Q.Q.Y.[dP].P}$PEPTIDE1,PEPTIDE1,1:R1-13:R2$$$V2.0)	23
CCCCCCCC[C@@H]1NC(=O)[C@H](CO)NC(=O)[C@H](C)NC(=O)[C@H]([C@@H](C)O)NC(=O)[C@H]([C@@H](C)O)NC(=O)[C@H](CCCC)NC(=O)[C@@H]2CCCN2C(=O)[C@H]2CCCN2C(=O)[C@H](Cc2ccc(O)cc2)NC(=O)[C@H](CCC(N)=O)NC(=O)[C@H](CCC(N)=O)NC(=O)[C@@H]2CCCN2C(=O)[C@@H]2CCCN2C1=O [Ex. 135] (HELM PEPTIDE1{[Nle].T.T.A.S.[CCCCCCCC[C@H](N[*:1])C(=O)[*:2]].P.P.Q.Q.Y.[dP].P}$PEPTIDE1,PEPTIDE1,1:R1-13:R2$$$V2.0)	23
CCCC[C@@H]1NC(=O)[C@@H]2CCCN2C(=O)[C@H]2CCCN2C(=O)[C@H](Cc2ccc(O)cc2)NC(=O)[C@H](CCC(N)=O)NC(=O)[C@H](CCC(N)=O)NC(=O)[C@@H]2CCCN2C(=O)[C@@H]2CCCN2C(=O)[C@H](CC2CCCCC2)NC(=O)[C@H](CO)NC(=O)[C@H](C)NC(=O)[C@H]([C@@H](C)O)NC(=O)[C@H]([C@@H](C)O)NC1=O [Ex. 139] (HELM PEPTIDE1{[Nle].T.T.A.S.[Cha].P.P.Q.Q.Y.[dP].P}$PEPTIDE1,PEPTIDE1,1:R1-13:R2$$$V2.0)	18
CC[C@H](C)[C@@H]1NC(=O)[C@H](CO)NC(=O)[C@H](C)NC(=O)[C@H]([C@@H](C)O)NC(=O)[C@H](CCC(N)=O)NC(=O)[C@H](CCc2ccccc2)NC(=O)[C@@H]2CCCN2C(=O)[C@H]2CCCN2C(=O)[C@H](Cc2ccc(O)cc2)NC(=O)[C@H]([C@@H](C)O)NC(=O)[C@H](CCC(N)=O)NC(=O)[C@@H]2CCCN2C(=O)[C@@H]2CCCN2C1=O [Ex. 142] (HELM PEPTIDE1{[O=C([C@H](CCc1ccccc1)N[*:1])[*:2]].Q.T.A.S.I.P.P.Q.T.Y.[dP].P}$PEPTIDE1,PEPTIDE1,1:R1-13:R2$$$V2.0)	16
CCCCCCCC[C@@H]1NC(=O)[C@@H]2CCCN2C(=O)[C@H]2CCCN2C(=O)[C@H](Cc2ccccc2)NC(=O)[C@@H]2CSSC[C@H](NC1=O)C(=O)N[C@@H]([C@@H](C)O)C(=O)N[C@@H](C)C(=O)N[C@@H](CO)C(=O)N[C@@H]([C@@H](C)CC)C(=O)N1CCC[C@H]1C(=O)N1CCC[C@H]1C(=O)N[C@@H](CCC(N)=O)C(=O)N2 [Ex. 145] (HELM PEPTIDE1{[CCCCCCCC[C@H](N[*:1])C(=O)[*:2]].C.T.A.S.I.P.P.Q.C.F.[dP].P}$PEPTIDE1,PEPTIDE1,2:R3-10:R3|PEPTIDE1,PEPTIDE1,1:R1-13:R2$$$V2.0)	14
CCCCCCCC[C@@H]1NC(=O)[C@@H]2CCCN2C(=O)[C@H]2CCCN2C(=O)[C@H](Cc2ccc(O)cc2)NC(=O)[C@H](CCC(N)=O)NC(=O)[C@H](CCC(N)=O)NC(=O)[C@@H]2CCCN2C(=O)[C@@H]2CCCN2C(=O)[C@H]([C@@H](C)CC)NC(=O)[C@H](CO)NC(=O)[C@H](C)NC(=O)[C@H]([C@@H](C)O)NC(=O)[C@H]([C@@H](C)O)NC1=O [Ex. 147] (HELM PEPTIDE1{[CCCCCCCC[C@H](N[*:1])C(=O)[*:2]].T.T.A.S.I.P.P.Q.Q.Y.[dP].P}$PEPTIDE1,PEPTIDE1,1:R1-13:R2$$$V2.0)	11
CCCCCCCC[C@@H]1NC(=O)[C@@H]2CCCN2C(=O)[C@H]2CCCN2C(=O)[C@H](CCC(N)=O)NC(=O)[C@@H]2CSSC[C@H](NC1=O)C(=O)N[C@@H]([C@@H](C)O)C(=O)N[C@@H](C)C(=O)N[C@@H](CO)C(=O)N[C@@H]([C@@H](C)CC)C(=O)N1CCC[C@H]1C(=O)N1CCC[C@H]1C(=O)N[C@@H](CCC(N)=O)C(=O)N2 [Ex. 149] (HELM PEPTIDE1{[CCCCCCCC[C@H](N[*:1])C(=O)[*:2]].C.T.A.S.I.P.P.Q.C.Q.[dP].P}$PEPTIDE1,PEPTIDE1,2:R3-10:R3|PEPTIDE1,PEPTIDE1,1:R1-13:R2$$$V2.0)	11
CCCCCCCC[C@@H]1NC(=O)[C@@H]2CCCN2C(=O)[C@H]2CCCN2C(=O)[C@H](Cc2ccc(O)cc2)NC(=O)[C@@H]2CSSC[C@H](NC1=O)C(=O)N[C@@H]([C@@H](C)O)C(=O)N[C@@H](C)C(=O)N[C@@H](CO)C(=O)N[C@@H](CC1CCCCC1)C(=O)N1CCC[C@H]1C(=O)N1CCC[C@H]1C(=O)N[C@@H](CCC(N)=O)C(=O)N2 [Ex. 150] (HELM PEPTIDE1{[CCCCCCCC[C@H](N[*:1])C(=O)[*:2]].C.T.A.S.[Cha].P.P.Q.C.Y.[dP].P}$PEPTIDE1,PEPTIDE1,2:R3-10:R3|PEPTIDE1,PEPTIDE1,1:R1-13:R2$$$V2.0)	10
CCCCCCCC[C@@H]1NC(=O)[C@H](CO)NC(=O)[C@H](C)NC(=O)[C@H]([C@@H](C)O)NC(=O)[C@@H]2CSSC[C@H](NC(=O)[C@H](CCC(N)=O)NC(=O)[C@@H]3CCCN3C(=O)[C@@H]3CCCN3C1=O)C(=O)N[C@@H](Cc1ccccc1)C(=O)N1CCC[C@@H]1C(=O)N1CCC[C@H]1C(=O)N[C@@H](CCc1ccccc1)C(=O)N2 [Ex. 152] (HELM PEPTIDE1{[O=C([C@H](CCc1ccccc1)N[*:1])[*:2]].C.T.A.S.[CCCCCCCC[C@H](N[*:1])C(=O)[*:2]].P.P.Q.C.F.[dP].P}$PEPTIDE1,PEPTIDE1,2:R3-10:R3|PEPTIDE1,PEPTIDE1,1:R1-13:R2$$$V2.0)	9
CCCCCCCC[C@@H]1NC(=O)[C@@H]2CCCN2C(=O)[C@H]2CCCN2C(=O)[C@H](Cc2ccccc2)NC(=O)[C@@H]2CSSC[C@H](NC1=O)C(=O)N[C@@H]([C@@H](C)O)C(=O)N[C@@H](C)C(=O)N[C@@H](CO)C(=O)N[C@@H](CC1CCCCC1)C(=O)N1CCC[C@H]1C(=O)N1CCC[C@H]1C(=O)N[C@@H](CCC(N)=O)C(=O)N2 [Ex. 157] (HELM PEPTIDE1{[CCCCCCCC[C@H](N[*:1])C(=O)[*:2]].C.T.A.S.[Cha].P.P.Q.C.F.[dP].P}$PEPTIDE1,PEPTIDE1,2:R3-10:R3|PEPTIDE1,PEPTIDE1,1:R1-13:R2$$$V2.0)	7
CCCCCCCC[C@@H]1NC(=O)[C@@H]2CCCN2C(=O)[C@H]2CCCN2C(=O)[C@H](CCC(N)=O)NC(=O)[C@@H]2CSSC[C@H](NC1=O)C(=O)N[C@@H]([C@@H](C)O)C(=O)N[C@@H](C)C(=O)N[C@@H](CO)C(=O)N[C@@H](CC1CCCCC1)C(=O)N1CCC[C@H]1C(=O)N1CCC[C@H]1C(=O)N[C@@H](CCC(N)=O)C(=O)N2 [Ex. 159] (HELM PEPTIDE1{[CCCCCCCC[C@H](N[*:1])C(=O)[*:2]].C.T.A.S.[Cha].P.P.Q.C.Q.[dP].P}$PEPTIDE1,PEPTIDE1,2:R3-10:R3|PEPTIDE1,PEPTIDE1,1:R1-13:R2$$$V2.0)	7
CCCCCCCC[C@@H]1NC(=O)[C@H](CO)NC(=O)[C@H](C)NC(=O)[C@H]([C@@H](C)O)NC(=O)[C@@H]2CSSC[C@H](NC(=O)[C@H](CCC(N)=O)NC(=O)[C@@H]3CCCN3C(=O)[C@@H]3CCCN3C1=O)C(=O)N[C@@H](Cc1ccc(O)cc1)C(=O)N1CCC[C@@H]1C(=O)N1CCC[C@H]1C(=O)N[C@@H](CCc1ccccc1)C(=O)N2 [Ex. 161] (HELM PEPTIDE1{[O=C([C@H](CCc1ccccc1)N[*:1])[*:2]].C.T.A.S.[CCCCCCCC[C@H](N[*:1])C(=O)[*:2]].P.P.Q.C.Y.[dP].P}$PEPTIDE1,PEPTIDE1,2:R3-10:R3|PEPTIDE1,PEPTIDE1,1:R1-13:R2$$$V2.0)	6
C[C@@H]1NC(=O)[C@H]([C@@H](C)O)NC(=O)[C@@H]2CSSC[C@H](NC(=O)[C@H](CCC(N)=O)NC(=O)[C@@H]3CCCN3C(=O)[C@@H]3CCCN3C(=O)[C@H](CC3CCCCC3)NC(=O)[C@H](CO)NC1=O)C(=O)N[C@@H](Cc1ccc(O)cc1)C(=O)N1CCC[C@@H]1C(=O)N1CCC[C@H]1C(=O)N[C@@H](CCc1ccccc1)C(=O)N2 [Ex. 162] (HELM PEPTIDE1{[O=C([C@H](CCc1ccccc1)N[*:1])[*:2]].C.T.A.S.[Cha].P.P.Q.C.Y.[dP].P}$PEPTIDE1,PEPTIDE1,2:R3-10:R3|PEPTIDE1,PEPTIDE1,1:R1-13:R2$$$V2.0)	12.5
CCCC[C@@H]1NC(=O)[C@H](CCC(N)=O)NC(=O)[C@@H](CCC(N)=O)NC(=O)[C@H](CC2CCCCC2)NC(=O)[C@@H]2CSSC[C@H](NC1=O)C(=O)N[C@@H]([C@@H](C)O)C(=O)N[C@@H](C)C(=O)N[C@@H](CO)C(=O)N[C@@H](CC1CCCCC1)C(=O)N1CCC[C@H]1C(=O)N1CCC[C@H]1C(=O)N[C@@H](CCC(N)=O)C(=O)N2 [Ex. 171] (HELM PEPTIDE1{[Nle].C.T.A.S.[Cha].P.P.Q.C.[Cha].[dQ].Q}$PEPTIDE1,PEPTIDE1,2:R3-10:R3|PEPTIDE1,PEPTIDE1,1:R1-13:R2$$$V2.0)	13
CCCC[C@@H]1NC(=O)[C@H](CCC(N)=O)NC(=O)[C@H]2CCCN2C(=O)[C@H](CCC(N)=O)NC(=O)[C@@H]2CSSC[C@H](NC1=O)C(=O)N[C@@H]([C@@H](C)O)C(=O)N[C@@H](C)C(=O)N[C@@H](CO)C(=O)N[C@@H](CC1CCCCC1)C(=O)N1CCC[C@H]1C(=O)N1CCC[C@H]1C(=O)N[C@@H](CCC(N)=O)C(=O)N2 [compound 164] (HELM PEPTIDE1{[Nle].C.T.A.S.[Cha].P.P.Q.C.Q.[dP].Q}$PEPTIDE1,PEPTIDE1,2:R3-10:R3|PEPTIDE1,PEPTIDE1,1:R1-13:R2$$$V2.0)	24

Reference: patent publication US8658604B2, “Template-fixed beta-hairpin peptidomimetics with protease inhibitory activity” (Polyphor Ltd, priority 2005, dated 2014)
